Measured values taken from paper PMC10709440, “High-throughput ligand profile characterization in novel cell lines expressing seven heterologous insect olfactory receptors for the detection of volatile plant biomarkers” (Scientific Reports, 2023).
Several values for one entry are separate records, joined by “and”; a condition that tells them apart may be missing. Identical values can stand only once.

What was measured:
[1] = molecular target: T1, Drosophila OR49b (Drosophila melanogaster, UniProt Q9V6H2); experiment: cell-based
T1 construct: expressed in transfected cells
T1 sequence (Q9V6H2 1-375): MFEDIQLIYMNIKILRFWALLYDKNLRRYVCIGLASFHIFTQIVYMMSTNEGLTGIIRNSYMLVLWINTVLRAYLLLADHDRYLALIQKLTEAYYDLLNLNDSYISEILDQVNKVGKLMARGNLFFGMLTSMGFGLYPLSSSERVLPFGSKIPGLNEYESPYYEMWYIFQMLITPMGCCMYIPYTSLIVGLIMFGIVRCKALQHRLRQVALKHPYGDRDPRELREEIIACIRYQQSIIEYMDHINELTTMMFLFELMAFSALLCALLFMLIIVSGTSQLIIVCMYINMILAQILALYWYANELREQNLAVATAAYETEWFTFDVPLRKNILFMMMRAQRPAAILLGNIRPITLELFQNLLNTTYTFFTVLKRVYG
T1 sequence (Q9VNB5 1-486 partner): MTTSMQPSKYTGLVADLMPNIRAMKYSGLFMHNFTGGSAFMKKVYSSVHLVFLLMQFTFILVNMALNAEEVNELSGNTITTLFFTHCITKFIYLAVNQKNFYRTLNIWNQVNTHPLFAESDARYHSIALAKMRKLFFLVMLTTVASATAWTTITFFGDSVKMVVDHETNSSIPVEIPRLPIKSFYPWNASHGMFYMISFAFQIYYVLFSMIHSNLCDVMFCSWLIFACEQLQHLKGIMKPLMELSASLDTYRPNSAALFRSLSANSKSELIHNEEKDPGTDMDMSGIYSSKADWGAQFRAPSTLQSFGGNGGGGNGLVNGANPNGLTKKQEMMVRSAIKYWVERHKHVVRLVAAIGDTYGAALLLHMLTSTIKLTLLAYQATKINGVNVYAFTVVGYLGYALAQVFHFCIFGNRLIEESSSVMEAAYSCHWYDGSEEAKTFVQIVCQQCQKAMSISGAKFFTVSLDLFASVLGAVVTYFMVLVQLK
Description: These VUAA1 normalized ∆F values were used to compare the different receptors and ligands.
The concentration-dependent effect of the reference ligands on their cognate cell lines was examined in more detail. Twelve different ligand concentrations were measured on each cell line in an overall 0.01 μM to 100 μM concentration range with 5 repetitions with three technical replicates each time.
Twelve thousand to 18,000 cells were plated into each well of a black wall, transparent bottom 384-well microplate (Greiner) 48 h or 72 h before the measurements and were simultaneously treated with 1 μg/mL doxycycline. […] The plate has 24 columns, thus we could record responses in up to eight different cell lines in each plate. On the day of the experiment, the growth medium was replaced with 20 µL assay buffer/well (140 mM NaCl, 5 mM KCl, 2 mM CaCl2, 1 mM MgCl2, 5 mM HEPES-Na, 20 mM glucose, pH 7.3, 340 mOsm). […] Baseline fluorescence (F0) was recorded for 5 s, after which 7 µL VOC buffer (140 mM NaCl, 5 mM KCl, 2 mM CaCl2, 1 mM MgCl2, 5 mM HEPES-Na, 31 mM glucose, 0.1% DMSO, pH 7.3, 340 mOsm) was injected into each well in one row and the fluorescence response was recorded for an additional 30 s, at a rate of one read/sec. VOC solutions (VOC buffer with 4× concentration of the final measured VOC concentration, 9 µL/well was injected) were measured on the same wells in a second round with the same protocol. Each individual concentration of a specific VOC sample was recorded in three wells for the same cell line on the same microplate. The raw data were exported in xls file format, F0 and FMAX values, and the fluorescence intensity changes (∆F) were calculated in Excel (Microsoft) (Supplementary file Data summary.xlsx) using the following equation: ΔF=FMAX-F0/F0 (see also Fig. 1C). On each plate, we recorded the response of each cell line to 50 µM VUAA1. The average of these ∆F values of each cell line were used to calculate the VUAA1-normalized values for the rest of the plate, by dividing VOC response ∆F values by the average VUAA1 response ∆F value of the corresponding OR cell line. Each VOC-OR combination was measured three times as technical replicates. […] The average of these replicates were used as one ∆F and VUAA1-normalized ∆F in the following analysis.
In the next rows we tested the reference VOCs (or other VOCs known to activate the corresponding cell lines), in order to test if all cell lines are responsive. The remaining rows were used to test VOCs with unknown effect.
The recorded FMAX, F0, ∆F, VUAA1-normalized ∆F values, as well as the OR name, the name of the tested sample, and the final concentration for each well were copied into supplementary file Data summary.xlsx, that was used to summarize all the plates recorded. Here, the averages of the measurements were calculated for each receptor-VOC-concentration combination.

[2] = system: OR49b; set-up: method as in PMID 23329732; settings: OR49b in Xenopus oocytes; read-out: calculated EC50; cited from earlier work
[3] = system: OR49b; settings: 80 μM; OR49b transiently in HEK293T cells; cited from earlier work
[4] = OR49b, average of 5 biological replicates
[5] = OR49b, fit of each biological replicate
[6] = OR49b, fit of the averaged curve

Cc1ccccc1O [2-methylphenol]
EC50 ([1]; EC50 (fitted parameter), OR49b, fit of each biological replicate): 3.35 µM and 16.1 µM and 14.8 µM and 21 µM and 31.6 µM | EC50 ([1]; EC50, AVERAGE, OR49b, arithmetic average of 5 replicate EC50): 17.4 µM | EC50 ([1]; EC50, FITTED AVERAGE CURVE, OR49b, fit of the averaged curve): 24.4 µM | EC50 ([1]; EC50, OR49b cell line, fitted Hill equation, Hill coefficient constrained to 1, maximal response max 1): 13.9 µM | EC50 ([1]; LOG EC50 (fitted parameter), OR49b, fit of each biological replicate, log of EC50, unit inferred): 3.35 µM and 16.1 µM and 14.8 µM and 21 µM and 31.6 µM | EC50 ([1]; LOG EC50, AVERAGE, OR49b, average of 5 biological replicates): 14 µM | response, AVERAGE ([1]; OR49b, VOC concentration 0.075): 0 | response, biological replicates ([1]; OR49b, VOC concentration 0.075): 0 | response, AVERAGE ([1]; OR49b, VOC concentration 0.15): 0 | response, biological replicates ([1]; OR49b, VOC concentration 0.15): 0 | response, AVERAGE ([1]; OR49b, VOC concentration 0.3): 0.0628 | response, biological replicates ([1]; OR49b, VOC concentration 0.3): 0 (2×) and 0.1244 and 0.09727 and 0.09231 | response, AVERAGE ([1]; OR49b, VOC concentration 0.6): 0.04614 | response, biological replicates ([1]; OR49b, VOC concentration 0.6): 0 (3×) and 0.1263 and 0.1043 | response, AVERAGE ([1]; OR49b, VOC concentration 1.25): 0.07731 | response, biological replicates ([1]; OR49b, VOC concentration 1.25): 0 (2×) and 0.1346 and 0.1269 and 0.1251 | response, AVERAGE ([1]; OR49b, VOC concentration 2.5): 0.06463 | response, biological replicates ([1]; OR49b, VOC concentration 2.5): 0.1405 and 0 (2×) and 0.06363 and 0.119 | response, AVERAGE ([1]; OR49b, VOC concentration 5): 0.1447 | response, biological replicates ([1]; OR49b, VOC concentration 5): 0.2459 and 0.1808 and 0.1356 and 0.1611 and 0 | response, AVERAGE ([1]; OR49b, VOC concentration 10): 0.2704 | response, biological replicates ([1]; OR49b, VOC concentration 10): 0.4119 and 0.3158 and 0.288 and 0.1952 and 0.1409 | response, AVERAGE ([1]; OR49b, VOC concentration 20): 0.5849 | response, biological replicates ([1]; OR49b, VOC concentration 20): 0.5662 and 0.6184 and 0.7088 and 0.601 and 0.43 | response, AVERAGE ([1]; OR49b, VOC concentration 40): 0.6048 | response, biological replicates ([1]; OR49b, VOC concentration 40): 0.5892 and 0.7837 and 0.6143 and 0.432 | response, AVERAGE ([1]; OR49b, VOC concentration 60): 0.7233 | response, biological replicates ([1]; OR49b, VOC concentration 60): 0.8924 and 0.8145 and 0.74 and 0.4464 | response, AVERAGE ([1]; OR49b, VOC concentration 80): 0.613 | response, biological replicates ([1]; OR49b, VOC concentration 80): 0 and 0.9414 and 0.8681 and 0.8023 and 0.453 | response, AVERAGE ([1]; OR49b, VOC concentration 100): 0.818 | response, biological replicates ([1]; OR49b, VOC concentration 100): 0.8641 and 0.8887 and 0.8515 and 0.6679 | AVERAGE MAX [1, 4]: 0.8353 | n, AVERAGE [1, 4]: 1 | MAX (fitted parameter) [1, 5]: 0.4157 and 1 (3×) and 0.7607 | n (fitted parameter) [1, 5]: 1 | MAX, fitted average curve [1, 6]: 1 | n, FITTED AVERAGE CURVE [1, 6]: 0.855 | EC50 [2]: 239 ± 76 µM | response [3]: 38.5%
